{"source": "patent US20200223826A1", "about": "“Glucose-6-Phosphate Dehydrogenase (G6PD)-Modulating Agents And Methods Of Treating G6PD Deficiency” (The Board of Trustees of the Leland Stanford Junior …, priority 2017, published 2020)", "key": {"human erythrocytes [1]": {"tested_on": "human erythrocytes", "assay": "Erythrocyte refrigerated storage assay, protein leakage", "assay_type": "cell-based", "settings": "AG1 1 μM", "method": "(§1) De-identified blood samples were obtained from the Stanford Blood Center. Erythrocytes were collected by filtering the samples through a cellulose slurry to remove platelets and leukocytes and then washed with saline. G6PD activity was measured (Beutler E. Red cell metabolism: A manual of biochemical methods (3rd edition). Grune & Stratton (1984)). […] A 5% erythrocyte suspension was pre-incubated with 1-5 μM AG1 at 4° C. overnight, which was followed by treatment with (or without) either 1 mM chloroquine (CQ) or 1 mM diamide for 3-4 hours at 37° C. (for hemolysis assay with chloroquine, the mixture was incubated under light). Then centrifugation at 1,000 rpm for 5 minutes was followed. Hemoglobin release in the supernatant was monitored by measuring absorbance at 540 nm. […] After wash, the samples were lysed with 0.1% Triton X-100 (final concentration), and the florescence was analyzed with excitation/emission at 485/525 nm. GSH measurement was determined using a Cayman glutathione assay kit (Cayman Chemicals, 703002). […] The absorbance was read at 412 nm. For storage assay, a 5% erythrocyte suspension was stored at 4° C. with and without 1 μM AG1, and hemolysis and G6PD activity were monitored every week for 28 days to examine whether AG1 improves preservation of erythrocytes over time. Protein leakage was also examined by measuring the absorbance of the supernatant of samples at 280 nm. […]"}, "[2]": {"molecular_target": "T1, G6PD in human erythrocytes (Homo sapiens, UniProt P11413)", "T1 construct": "host or cells: human erythrocytes", "T1 sequence (P11413 2-515 limits assumed)": "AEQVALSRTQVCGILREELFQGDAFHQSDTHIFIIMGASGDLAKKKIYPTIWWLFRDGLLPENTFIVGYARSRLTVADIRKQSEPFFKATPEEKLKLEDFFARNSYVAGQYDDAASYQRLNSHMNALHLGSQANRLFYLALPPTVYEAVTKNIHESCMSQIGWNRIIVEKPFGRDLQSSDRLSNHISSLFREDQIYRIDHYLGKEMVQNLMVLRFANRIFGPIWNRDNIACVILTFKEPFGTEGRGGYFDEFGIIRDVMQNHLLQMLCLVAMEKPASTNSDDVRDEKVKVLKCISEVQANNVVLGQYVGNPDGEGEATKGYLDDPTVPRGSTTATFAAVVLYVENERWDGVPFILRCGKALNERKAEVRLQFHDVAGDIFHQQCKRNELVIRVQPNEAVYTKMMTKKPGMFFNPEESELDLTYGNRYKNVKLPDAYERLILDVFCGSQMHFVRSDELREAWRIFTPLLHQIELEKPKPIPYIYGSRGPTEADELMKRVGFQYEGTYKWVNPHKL", "assay": "Erythrocyte refrigerated storage assay, G6PD activity", "assay_type": "cell-based", "settings": "AG1 1 μM", "method": "as §1"}, "human erythrocytes [3]": {"tested_on": "human erythrocytes", "assay": "ROS levels in erythrocytes under oxidative stressors", "assay_type": "cell-based", "settings": "drug-induced oxidative stress", "method": "as §1"}, "[4]": {"molecular_target": "T2, G6PD in fibroblast cells carrying Mediterranean variant (Homo sapiens, UniProt P11413, S188F)", "T2 construct": "host or cells: subject-derived fibroblast cell line", "T2 sequence (P11413 2-515 S188F limits assumed)": "as the sequence (P11413 2-515 limits assumed) above, with S187F counted along it", "assay": "Cycloheximide chase in fibroblasts", "assay_type": "cell-based", "settings": "cycloheximide treatment", "method": "Lymphocytes derived from a normal subject (HG 00866) and a G6PD-deficient subject carrying Canton variant in G6PD (HG 02367) were purchased from Coriell Institute and cultured in RPMI 1640 supplemented with 15% fetal bovine serum (FBS), 100 U/ml penicillin, and 100 μg/ml streptomycin. An SH-SY5Y neuroblastoma cell line was cultured in Dulbecco's Modification of Eagle's Medium/Ham's F-12 50/50 Mix supplemented with 10% FBS, 100 U/ml penicillin, and 100 μg/ml streptomycin. A G6PD-deficient subject-derived fibroblast cell line carrying Mediterranean variant and normal fibroblast cell line as control were purchased from Coriell Institute (GM 01152) and ThermoFisher Scientific (C0135C), respectively, and cultured in minimum essential medium supplemented with 15% FBS, 100 U/ml penicillin, and 100 μg/ml streptomycin. All the cell lines were maintained at 37° C. in a humidified incubator with an atmosphere of 5% of CO2 and 95% air.\n50,000 cells (SH-SH5Y cells or fibroblast cells) or 100,000 cells (lymphocytes) were seeded in a 12-well plate and incubated overnight. The cells were subjected to serum starvation (50-75%) for 48 hours and treated with 50 μg/ml of cycloheximide at different time points (0-48 hours). The cells were treated with the compound (1 μM) for 48 hours together with cycloheximide. […]"}, "zebrafish embryos": {"tested_on": "zebrafish embryos", "assay": "Zebrafish embryo development", "assay_type": "in vivo", "settings": "treated at 24 hpf, scored at 32 or 48 hpf", "method": "Adult zebrafish (AB strain; 3-18 months old) were raised and embryos were obtained through natural mating and staged according to standard protocols. Adult tbx16b104/+ were obtained. All animal procedures were performed according to NIH guidelines. Embryos were raised in E3 medium at 28.5° C.\nEmbryos were dechorinated with pronase at 24 hours post fertilization (hpf) and treated with 50 μg/ml of chloroquine and/or AG1 by directly adding the compounds to the well. For ROS measurements, embryos were incubated with compounds for 2 hours, and then the ROS detecting reagent (CM-H2DCFDA) was added at a final concentration of 500 ng/ml to the well for a total treatment time of 5 hours. One embryo was placed to each well of a black, opaque 96-well plate. The florescence was analyzed with excitation/emission at 485/525 nm. After ROS assays, embryos at about 32 hpf were pooled and lysed in buffer containing 50 mM Tris (pH 7.4), 150 mM NaCl, 1 mM EDTA, 0.1% NP-40, and protease inhibitor cocktail, which was followed by three cycles of freeze and thawing in liquid nitrogen. The lysate was centrifuged at 14,000 rpm at 4° C. for 15 minutes. Total protein concentration in the supernatants (total lysate) was determined by Bradford method. […] 50 μg of the lysate was used to measure NADPH levels using a NADPH quantification kit (Biovision), according to the manufacturer's instructions. […]"}, "g6pd crispant embryos": {"tested_on": "g6pd crispant embryos", "assay": "g6pd crispant zebrafish embryos", "assay_type": "in vivo", "settings": "1 μM AG1", "method": "sgRNA against Exon 10 of g6pd was designed using CHOPCHOP and in vitro transcribed according to standard protocols. The gene-specific oligo sequence was: 5′-[…] CAAG-3′ (SEQ ID NO: //). sgRNA and Cas9 protein (NEB) were mixed and microinjected into one-cell-stage embryos. For each injected clutch, 10 individual embryos were isolated at 24 hpf for sequencing to confirm introduction of a CRISPR-mediated indel in exon 10.\nEmbryos were dechorinated with pronase at 24 hours post fertilization (hpf) and treated with 50 μg/ml of chloroquine and/or AG1 by directly adding the compounds to the well. For ROS measurements, embryos were incubated with compounds for 2 hours, and then the ROS detecting reagent (CM-H2DCFDA) was added at a final concentration of 500 ng/ml to the well for a total treatment time of 5 hours. One embryo was placed to each well of a black, opaque 96-well plate. The florescence was analyzed with excitation/emission at 485/525 nm. […] Total protein concentration in the supernatants (total lysate) was determined by Bradford method. […] 50 μg of the lysate was used to measure NADPH levels using a NADPH quantification kit (Biovision), according to the manufacturer's instructions."}}}
{"smiles": "SCCNCCc1c[nH]c2ccccc12", "note": "[AG1, 2-[2-(1H-indol-3-yl)ethylamino]ethanethiol]", "values": [{"measurement": "protein leakage", "setting": "human erythrocytes [1]", "result": "decreased"}, {"measurement": "G6PD activity", "setting": "[2]", "result": "increased"}, {"measurement": "ROS levels", "setting": "human erythrocytes [3]", "result": "reduced"}, {"measurement": "stability of G6PD", "setting": "[4]", "result": "stabilized"}, {"measurement": "concentrations at which embryos developed normally", "setting": "zebrafish embryos", "result": "< 10", "unit": "µM"}, {"measurement": "ROS, G6PD activity, NADPH level, pericardial edema", "setting": "g6pd crispant embryos", "result": "did not significantly affect"}]}
